Reference: patent publication US4133888A, “Analgesic and morphine antagonistic 2'-hydroxy-2-(5-isoxazolyl-methyl)-6,7-benzomorphans and salts thereof” (Boehringer Ingelheim GmbH, priority 1977, dated 1979)

Assays:
mouse [1] = test: Morphine-antagonism, mouse (Nalorphine = 1); type: in vivo; details: for Morphine-antagonism (Nalorphine = 1): mouse, relative potency
Text: (§1) The compounds of the present invention, that is, those embraced by formula I above and their non-toxic, pharmacologically acceptable acid addition salts, have useful pharmacodynamic properties. More particularly, they exert a therapeutically useful effect upon the central nervous system in warm-blooded animals, such as mice, especially analgesic and morphine-antagonistic activities, which were confirmed in the writhing test and the Haffner test. Pursuant to prevailing teachings, this agonistic/antagonistic activity spectrum points toward the absence of or a very low abuse potential.

mouse [2] = test: Analgesia, writhing test, mouse s.c.; type: in vivo; details: for ED50: sc, mouse s.c.
Text: as §1

Toxicity, mouse, s.c. = type: in vivo; details: in vivo, sc; for LD50: mouse; for selectivity ratio: mouse s.c., LD50 / writhing ED50, read-out: Index LD50/ED50
mouse [3] = test: Toxicity, mouse, s.c.; type: in vivo
[4] = test system: withdrawn morphine dependent rats; test: Suppression of abstinence symptoms in withdrawn morphine dependent rats; type: in vivo, rat
Text: as §1

[5] = test system: withdrawn morphine dependent monkeys; test: Suppression of abstinence symptoms in withdrawn morphine dependent monkeys; type: in vivo, monkey

In the case of `Cc1ccoc1CN1CC[C@@]2(C)c3cc(O)ccc3C[C@@H]1[C@@H]2C` (relative stereo) [2-(3-methyl-furfuryl)-2'-hydroxy-5,9-α-dimethyl-6,7-benzomorphan], the antagonistic component (mouse [1]; morphine antagonism, in words) is reported as “does not have the desired antagonistic component”, the “Morphine-antagonism (Nalorphine = 1)” value (mouse [1]) is reported as “inactive” and the ED50 (mouse [2]) is reported as 0.6 mg/kg. The LD50 (Toxicity, mouse, s.c.) was 305 mg/kg and the selectivity ratio (Toxicity, mouse, s.c.) was 508.
For `C[C@H]1[C@H]2Cc3ccc(O)cc3[C@]1(C)CCN2Cc1ccco1` (relative stereo) [2-furfuryl-2'-hydroxy-5,9-α-dimethyl-6,7-benzomorphan], the “Morphine-antagonism (Nalorphine = 1)” value (mouse [1]) was 1, the ED50 (mouse [2]) was 18 mg/kg and the LD50 (Toxicity, mouse, s.c.) was 292 mg/kg. For the same compound, the selectivity ratio (Toxicity, mouse, s.c.) was 16.
With `C[C@H]1[C@H]2Cc3ccc(O)cc3[C@]1(C)CCN2Cc1ccno1` (relative stereo) [Example 1, 5,9-α-Dimethyl-2'-hydroxy-2-(5-isoxazolyl-methyl)-6,7-benzomorphan] the “Morphine-antagonism (Nalorphine = 1)” value (mouse [1]) was 0.1, the ED50 (mouse [2]) was 0.6 mg/kg and the “analgesic activity compared with 2-furfuryl-2'-hydroxy-5,9-α-dimethyl-6,7-benzomorphan” value (mouse [2]; vs. 2-furfuryl compound) was “significantly superior”. For the same compound, the LD50 (Toxicity, mouse, s.c.) was 1080 mg/kg, the selectivity ratio (Toxicity, mouse, s.c.) was 1800 and the “therapeutic index compared with 2-furfuryl-2'-hydroxy-5,9-α-dimethyl-6,7-benzomorphan” value (mouse [3]; vs. 2-furfuryl compound) was “significantly superior”. For the same compound, the “therapeutic index compared to pentazocine” value (mouse [3]; vs. pentazocine) was “far superior”, the “suppression of abstinence symptoms” value [4] was “not capable of suppressing the abstinence symptoms” and the “suppression of abstinence symptoms” value [5] was “not capable of suppressing the abstinence symptoms”.
With `CC(C)=CCN1CCC2(C)c3cc(O)ccc3CC1C2C` (stereo not shown) [Pentazocine] the “Morphine-antagonism (Nalorphine = 1)” value (mouse [1]) was 0.025, the ED50 (mouse [2]) was 1.4 mg/kg and the LD50 (Toxicity, mouse, s.c.) was 220 mg/kg. It also gave a selectivity ratio (Toxicity, mouse, s.c.) of 157.
